Assay results from patent publication US9365522B2, “Pyrazole amide derivative” (AMGEN INC., priority 2015, dated 2016).

biological target: T1, ligand binding domain of human ROR gamma (Homo sapiens, UniProt P51449); experiment: ROR gamma reporter gene assay (GAL4-RORγ LBD luciferase, Dual-Glo); format: cell-based; conditions: HEK293T cells transfected with pM-ROR gamma, 8 concentrations 3.5 nM to 10.5 μM, 24 h incubation
T1 construct: NM_001001523; expressed in transfected cells; host or cells: HEK293T
T1 sequence (P51449 247-497 isoform P51449-2): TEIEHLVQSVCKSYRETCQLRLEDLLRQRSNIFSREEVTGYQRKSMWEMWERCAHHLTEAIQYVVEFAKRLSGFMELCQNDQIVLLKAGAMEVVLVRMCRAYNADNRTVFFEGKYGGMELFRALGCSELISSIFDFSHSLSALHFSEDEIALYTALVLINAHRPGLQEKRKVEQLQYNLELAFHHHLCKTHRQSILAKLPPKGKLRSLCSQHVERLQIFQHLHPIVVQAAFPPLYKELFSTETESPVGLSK
In short: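 HEK293T cells were co-transfected with GAL4 DBD fused to human RORγ LBD (aa 247-497), a 5×UAS firefly luciferase reporter and CMV-driven renilla luciferase, in medium with 10% charcoal-stripped FBS.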

In the case of `CC(C)(C)CN(CC(=O)c1c(Cl)cncc1Cl)C(=O)c1cnn(C2CCC(C)(C(=O)O)CC2)c1Cl` (stereo not drawn) [Example 276, trans-4-(5-chloro-4-((2-(3,5-dichloropyridin-4-yl)-2-oxoethyl)-(2,2-dimethylpropyl)carbamoyl)pyrazol-1-yl)-1-methylcyclohexane-1-carboxylic acid], the “result (pIC50, inhibition of RORγ transcriptional activity)” value is reported as 6.91.

same assay, conditions: HEK293T cells transfected with pM-ROR gamma, 8 concentrations 3.5 nM to 10.5 μM, 24 h incubation; read-out: result (pIC50, inhibition of RORγ transcriptional activity) (converted)

Compared with `CC1(C)CCC(N(CC(=O)c2c(Cl)cc(F)cc2Cl)C(=O)c2cnn(C34CCC(C(=O)O)(CC3)CC4)c2C(F)F)CC1` [Example 273, 4-(4-((2-(2,6-dichloro-4-fluorophenyl)-2-oxoethyl)-(4,4-dimethylcyclohexyl)carbamoyl)-5-(difluoromethyl)pyrazol-1-yl)bicyclo[2.2.2]octane-1-carboxylic acid], `CC1(C)CCC(N(CC(=O)c2c(Cl)cc(F)cc2Cl)C(=O)c2cnn([C@H]3C[C@H](C(=O)O)C3)c2C(F)(F)F)CC1` [Example 290, trans-3-(4-((2-(2,6-dichloro-4-fluorophenyl)-2-oxoethyl)-(4,4-dimethylcyclohexyl)carbamoyl)-5-(trifluoromethyl)pyrazol-1-yl)cyclobutane-1-carboxylic acid] is 14-fold higher in IC50: 14100 pM for the first, 191000 pM for the second.

First: CC12CCC(CN(CC(=O)c3c(Cl)cc(F)cc3Cl)C(=O)c3cnn([C@H]4CC[C@](C)(C(=O)O)CC4)c3C(F)(F)F)(CC1)C2 [Example 274, trans-4-(4-((2-(2,6-dichloro-4-fluorophenyl)-2-oxoethyl)-((1-methyl-4-bicyclo[2.2.1]heptanyl)methyl)carbamoyl)-5-(trifluoromethyl)pyrazol-1-yl)-1-methylcyclohexane-1-carboxylic acid]
Second: CC12CCC(CN(CC(=O)c3c(Cl)cc(Cl)cc3Cl)C(=O)c3cnn([C@H]4CC[C@](C)(C(=O)O)CC4)c3C(F)(F)F)(CC1)C2 [Example 275, trans-4-(4-((1-methyl-4-bicyclo[2.2.1]heptanyl)methyl-(2-oxo-2-(2,4,6-trichlorophenyl)ethyl)carbamoyl)-5-(trifluoromethyl)pyrazol-1-yl)-1-methylcyclohexane-1-carboxylic acid]
The IC50 of the first is higher: 8320 pM for the first, less than 3470 pM for the second.

Going from `Cc1cc(Cl)c(C(=O)CN(C(=O)c2cnn([C@H]3CC[C@](C)(C(=O)O)CC3)c2C(F)(F)F)[C@H]2C[C@@H]3[C@H](C2)C3(C)C)c(Cl)c1` [Example 277, trans-4-(4-((2-(2,6-dichloro-4-methylphenyl)-2-oxoethyl)((1R,3r,5S)-6,6-dimethylbicyclo[3.1.0]hexan-3-yl)carbamoyl)-5-(trifluoromethyl)-1H-pyrazol-1-yl)-1-methylcyclohexanecarboxylic acid] to `CC1(C)[C@@H]2C[C@H](N(CC(=O)c3c(Cl)cccc3Cl)C(=O)c3cnn([C@H]4CC[C@](C)(C(=O)O)CC4)c3C(F)(F)F)C[C@@H]21` [Example 278, trans-4-(4-((2-(2,6-dichlorophenyl)-2-oxoethyl)((1R,3r,5S)-6,6-dimethylbicyclo[3.1.0]hexan-3-yl)carbamoyl)-5-(trifluoromethyl)-1H-pyrazol-1-yl)-1-methylcyclohexanecarboxylic acid], the IC50 rises from 7240 pM to 11700 pM (1.6-fold).

Compared with `Cc1cc(C)c(C(=O)CN(C(=O)c2cnn([C@H]3CC[C@](C)(C(=O)O)CC3)c2C(F)(F)F)C2CCC(C)(C)CC2)c(Cl)c1` [Example 279, trans-4-(4-((2-(2-chloro-4,6-dimethylphenyl)-2-oxoethyl)-(4,4-dimethylcyclohexyl)carbamoyl)-5-(trifluoromethyl)pyrazol-1-yl)-1-methylcyclohexane-1-carboxylic acid], `Cc1cc(Cl)cc(C)c1C(=O)CN(C(=O)c1cnn([C@H]2CC[C@](C)(C(=O)O)CC2)c1C(F)(F)F)C1CCC(C)(C)CC1` [Example 280, trans-4-(4-((2-(4-chloro-2,6-dimethylphenyl)-2-oxoethyl)-(4,4-dimethylcyclohexyl)carbamoyl)-5-(trifluoromethyl)pyrazol-1-yl)-1-methylcyclohexane-1-carboxylic acid] is 6.4-fold higher in IC50: 38000 pM for the first, 245000 pM for the second.

`C[C@]1(C(=O)O)CC[C@H](n2ncc(C(=O)N(CC(=O)c3c(Cl)cccc3Cl)CC3(F)CCCC3)c2C(F)(F)F)CC1` [Example 281, trans-4-(4-((2-(2,6-dichlorophenyl)-2-oxoethyl)-((1-fluorocyclopentyl)methyl)carbamoyl)-5-(trifluoromethyl)pyrazol-1-yl)-1-methylcyclohexane-1-carboxylic acid] and `Cc1cc(Cl)c(C(=O)CN(CC2(F)CCCC2)C(=O)c2cnn([C@H]3CC[C@](C)(C(=O)O)CC3)c2C(F)(F)F)c(Cl)c1` [Example 282, trans-4-(4-((2-(2,6-dichloro-4-methylphenyl)-2-oxoethyl)-((1-fluorocyclopentyl)methyl)carbamoyl)-5-(trifluoromethyl)pyrazol-1-yl)-1-methylcyclohexane-1-carboxylic acid] are within 1.5-fold of each other in IC50: 4270 pM for the first, 3390 pM for the second.

`CC1(C)CCC(N(CC(=O)c2c(Cl)cccc2Cl)C(=O)c2cnn([C@H]3CC[C@](C)(C(=O)O)CC3)c2C(F)(F)F)CC1` [Example 283, trans-4-(4-((2-(2,6-dichlorophenyl)-2-oxoethyl)-(4,4-dimethylcyclohexyl)carbamoyl)-5-(trifluoromethyl)pyrazol-1-yl)-1-methylcyclohexane-1-carboxylic acid] and `CC(C)(C)CN(CC(=O)c1c(Cl)cccc1Cl)C(=O)c1cnn([C@H]2CC[C@](C)(C(=O)O)CC2)c1C(F)(F)F` [Example 284, trans-4-(4-((2-(2,6-dichlorophenyl)-2-oxoethyl)-(2,2-dimethylpropyl)carbamoyl)-5-(trifluoromethyl)pyrazol-1-yl)-1-methylcyclohexane-1-carboxylic acid] are within 1.5-fold of each other in IC50: 9120 pM for the first, 11200 pM for the second.

First: CCC(C)(C)CN(CC(=O)c1c(Cl)cncc1Cl)C(=O)c1cnn([C@H]2CC[C@](C)(C(=O)O)CC2)c1C(F)(F)F [Example 286, trans-4-(4-((2-(3,5-dichioropyridin-4-yl)-2-oxoethyl)-(2,2-dimethylbutyl)carbamoyl)-5-(trifluoromethyl)pyrazol-1-yl)-1-methylcyclohexane-1-carboxylic acid]
Second: CCC(CC)N(CC(=O)c1c(Cl)cncc1Cl)C(=O)c1cnn([C@H]2CC[C@](C)(C(=O)O)CC2)c1C(F)(F)F [Example 287, trans-4-(4-((2-(3,5-dichloropyridin-4-yl)-2-oxoethyl)-pentan-3-ylcarbamoyl)-5-(trifluoromethyl)pyrazol-1-yl)-1-methylcyclohexane-1-carboxylic acid]
The IC50 of the first is 130-fold lower: 9120 pM for the first, 1.2e+06 pM for the second.

Compared with `CCC(C)(C)CN(CC(=O)c1c(Cl)cncc1Cl)C(=O)c1cnn(C23CCC(C(=O)O)(CC2)CC3)c1C(F)(F)F` [Example 288, 4-(4-((2-(3,5-dichloropyridin-4-yl)-2-oxoethyl)-(2,2-dimethylbutyl)carbamoyl)-5-(trifluoromethyl)pyrazol-1-yl)bicyclo[2.2.2]octane-1-carboxylic acid], `C[C@]1(C(=O)O)CC[C@H](n2ncc(C(=O)N(CC(=O)c3c(Cl)cc(Cl)cc3Cl)C3CCC4(CC3)COC4)c2C(F)(F)F)CC1` [Example 289, trans-1-methyl-4-(4-(2-oxaspiro[3.5]nonan-7-yl-(2-oxo-2-(2,4,6-trichlorophenyl)ethyl)carbamoyl)-5-(trifluoromethyl)pyrazol-1-yl)cyclohexane-1-carboxylic acid] is 8-fold higher in IC50: 11700 pM for the first, 93300 pM for the second.
